Our source for the IC50 values is ChEMBL document CHEMBL1130632, “Polycyclic aromatic compounds as anticancer agents: synthesis and biological evaluation of some chrysene derivatives” (Bioorg Med Chem Lett, 1998).

One may read the IC50 as the midpoint of a concentration-inhibition curve. Low readings indicate greater potency in that assay, high ones weaker potency in that assay.

Holding throughout (format): functional, cell-based
The subject of assay [1] is BRO melanoma cell line. The experiment in a line: Compound was evaluated for the growth inhibition of BRO melanoma cell line. Conditions: Homo sapiens.
Assay [2] concerns MCF7. Kind of assay: Compound was evaluated for the growth inhibition of MCF-7 breast cell line. Conditions: Homo sapiens.
The test system of assay [3] is SK-MEL-2. The experiment in a line: Compound was evaluated for the growth inhibition of […] melanoma cell line. Conditions: Homo sapiens.
Assay [4] relates to HT-29. The experiment in a line: Compound was evaluated for the growth inhibition of HT-29 colon cell line. The note with it: Homo sapiens.
For assay [5], the system named is P388. Kind of assay: Compound was evaluated for the growth inhibition of p388/0 leukemia cell line. Conditions: Mus musculus.

Converted amounts (≈) assume the structure as drawn.

Consider `O=C(CCC(=O)N1CCCCC1)Nc1cc2c3ccccc3ccc2c2ccccc12`, for which the half-maximal inhibitory concentration (IC50) in assay [1] worked out at 15 µg/mL (≈ 36.5 µM); in assay [2] it was 11.5 µg/mL (≈ 28 µM); in assay [3] it was 15.9 µg/mL (≈ 38.7 µM); in assay [4], 10.1 µg/mL (≈ 24.6 µM); in assay [5] it was 12.2 µg/mL (≈ 29.7 µM).
Taken in the same sequence, the figures for `CN1CCN(C(=O)CCC(=O)Nc2cc3c4ccccc4ccc3c3ccccc23)CC1` were 11.8 µg/mL (≈ 27.7 µM), 11.2 µg/mL (≈ 26.3 µM), 10 µg/mL (≈ 23.5 µM), 6.6 µg/mL (≈ 15.5 µM) and 9.8 µg/mL (≈ 23 µM).
With `COc1cccc2c1C(=O)c1c(O)c3c(c(O)c1C2=O)C[C@@](O)(C(=O)CO)C[C@@H]3O[C@H]1C[C@H](N)[C@H](O)[C@H](C)O1` [DOXORUBICIN], the IC50 worked out at 0.2 µg/mL (≈ 0.368 µM) in assay [1]; 0.4 µg/mL (≈ 0.736 µM) in assay [2]; 0.1 µg/mL (≈ 0.184 µM) in assay [3]; 0.5 µg/mL (≈ 0.92 µM) in assay [4]; 0.8 µg/mL (≈ 1.47 µM) in assay [5].
As to `CN1CCN(CCCCNc2ccc3c(ccc4c5ccccc5ccc34)c2)CC1`, the half-maximal inhibitory concentration (IC50) in assay [1] was 8.8 µg/mL (≈ 22.1 µM); in assay [2] it was 12.1 µg/mL (≈ 30.4 µM); in assay [3] it was 8.7 µg/mL (≈ 21.9 µM); in assay [4], 9.3 µg/mL (≈ 23.4 µM); in assay [5], 4.7 µg/mL (≈ 11.8 µM).
The matching figures for `O=C(CCC(=O)N1CCCCC1)Nc1ccc2c(ccc3c4ccccc4ccc23)c1`: 17.3 µg/mL (≈ 42.1 µM), 10.2 µg/mL (≈ 24.8 µM), 13.3 µg/mL (≈ 32.4 µM), 8.5 µg/mL (≈ 20.7 µM) and 10.5 µg/mL (≈ 25.6 µM).
For `c1ccc2c(c1)ccc1c3ccc(NCCCCN4CCCCC4)cc3ccc21`, the IC50 worked out at 4.5 µg/mL (≈ 11.8 µM) in assay [1]; 3 µg/mL (≈ 7.84 µM) in assay [2]; 3.8 µg/mL (≈ 9.93 µM) in assay [3]; 2.3 µg/mL (≈ 6.01 µM) in assay [4]; 2.2 µg/mL (≈ 5.75 µM) in assay [5].
The matching figures for `CN1CCN(C(=O)CCC(=O)Nc2ccc3c(ccc4c5ccccc5ccc34)c2)CC1`: 9.5 µg/mL (≈ 22.3 µM), 9.8 µg/mL (≈ 23 µM), 9.2 µg/mL (≈ 21.6 µM), 4.8 µg/mL (≈ 11.3 µM) and 7.9 µg/mL (≈ 18.6 µM).
